# Laboratory results reported in patent publication US10526291B2, “Potent dual BRD4-kinase inhibitors as cancer therapeutics” (H. Lee Moffitt Cancer Center and Research Institute, Inc., priority 2014, dated 2020).
# Values joined by “and” are separate entries in the source; they are usually repeats but may differ in a detail not shown here. Identical values can stand only once.
# What was measured:
# [1] = target: T1, BRD4-2 (Homo sapiens, UniProt O60885); assay: BRD4-2 IC50; type: binding
# T1 construct: BRD4-2; purchased
# [2] = test system: UKE-1; assay: UKE-1 cell IC50; type: cell-based; conditions: UKE1
# [3] = target: T2, JAK2 (Homo sapiens, UniProt O60674); assay: JAK2 IC50 (RB, commercial kinase panel); type: biochemical
# T2 construct: purchased
# T2 sequence (O60674 whole entry): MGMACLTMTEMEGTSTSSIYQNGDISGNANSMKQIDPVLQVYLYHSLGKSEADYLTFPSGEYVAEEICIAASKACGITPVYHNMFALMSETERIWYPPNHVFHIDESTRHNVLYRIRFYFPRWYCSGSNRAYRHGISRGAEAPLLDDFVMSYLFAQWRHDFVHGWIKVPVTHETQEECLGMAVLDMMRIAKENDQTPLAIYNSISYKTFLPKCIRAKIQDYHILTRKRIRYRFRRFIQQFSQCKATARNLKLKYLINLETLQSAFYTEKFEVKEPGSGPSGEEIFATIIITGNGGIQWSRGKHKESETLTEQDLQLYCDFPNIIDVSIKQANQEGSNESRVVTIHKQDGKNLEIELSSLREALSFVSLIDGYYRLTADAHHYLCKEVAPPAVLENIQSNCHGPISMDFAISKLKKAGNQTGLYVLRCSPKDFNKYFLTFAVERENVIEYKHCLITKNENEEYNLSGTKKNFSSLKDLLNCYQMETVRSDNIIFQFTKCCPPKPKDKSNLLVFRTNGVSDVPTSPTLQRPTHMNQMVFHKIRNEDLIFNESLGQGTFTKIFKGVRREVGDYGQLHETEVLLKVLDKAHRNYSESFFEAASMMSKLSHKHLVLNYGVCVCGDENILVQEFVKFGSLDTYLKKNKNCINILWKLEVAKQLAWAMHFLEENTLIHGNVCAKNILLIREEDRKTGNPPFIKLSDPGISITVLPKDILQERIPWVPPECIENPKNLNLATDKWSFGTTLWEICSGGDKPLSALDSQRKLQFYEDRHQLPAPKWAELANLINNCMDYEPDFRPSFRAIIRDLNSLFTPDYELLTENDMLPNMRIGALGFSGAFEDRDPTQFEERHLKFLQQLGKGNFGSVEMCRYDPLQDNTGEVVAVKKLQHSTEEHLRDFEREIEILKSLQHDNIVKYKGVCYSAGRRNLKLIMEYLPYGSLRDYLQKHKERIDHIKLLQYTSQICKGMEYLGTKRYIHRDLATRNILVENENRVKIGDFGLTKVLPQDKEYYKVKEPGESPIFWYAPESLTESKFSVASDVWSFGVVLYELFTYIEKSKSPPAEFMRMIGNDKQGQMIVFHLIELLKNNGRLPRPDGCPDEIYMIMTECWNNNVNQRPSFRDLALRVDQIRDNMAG
# [4] = test system: NCI-H2052; assay: NCI-H2052 cell IC50; type: cell-based; conditions: Homo sapiens
# [5] = test system: SAOS-2; assay: SAOS-2 cell IC50; type: cell-based; conditions: Homo sapiens
# [6] = test system: MV4-11 AML cells; assay: MV-4-11 cell IC50 (antiproliferative activity); type: cell-based; conditions: Homo sapiens
# Experimental: Cellular activity of promising compounds is assessed using MM.1S and MV4-11 AML cells using c-Myc levels as biomarker (6-12 hr treatment) and antiproliferative activity (48-72 hr treatment) as described (Ciceri et al., Dual kinase-bromodomain inhibitors for rationally designed polypharmacology. Nat Chem Biol 2014).
# [7] = target: T3, BRD4-1 (Homo sapiens, UniProt O60885); assay: BRD4-1 IC50; type: binding
# T3 construct: BRD4-1; purchased
# [8] = target: T4, BRDT-1 (Homo sapiens, UniProt Q58F21); assay: BRDT-1 IC50; type: binding
# T4 construct: BRDT-1; purchased
# [9] = test system: MM.1S cells; assay: MM.1S cell survival, MTT assay; type: cell-based; conditions: Homo sapiens, MM1.S, 72 h, 72 hours compound exposure
# [10] = target: BRD4 (Homo sapiens, UniProt O60885); assay: Differential Scanning Fluorimetry (DSF), stability of BRD4 upon ligand binding; conditions: for ΔTm at 4 µM: 100 μM protein, 4 μM compound and 2% DMSO; for IC50: estimated
# Experimental: DSF=Differential Scanning Fluorimetry; provides a measure of the increased stability of BRD4 upon ligand binding The DSF experiment was run at 100 μM protein, 4 μM compound and 2% DMSO.
# [11] = target: T5, FLT3 (Homo sapiens, UniProt P36888); assay: FLT3 IC50 (RB, commercial kinase panel); type: biochemical
# T5 construct: purchased
# T5 sequence (P36888 27-993): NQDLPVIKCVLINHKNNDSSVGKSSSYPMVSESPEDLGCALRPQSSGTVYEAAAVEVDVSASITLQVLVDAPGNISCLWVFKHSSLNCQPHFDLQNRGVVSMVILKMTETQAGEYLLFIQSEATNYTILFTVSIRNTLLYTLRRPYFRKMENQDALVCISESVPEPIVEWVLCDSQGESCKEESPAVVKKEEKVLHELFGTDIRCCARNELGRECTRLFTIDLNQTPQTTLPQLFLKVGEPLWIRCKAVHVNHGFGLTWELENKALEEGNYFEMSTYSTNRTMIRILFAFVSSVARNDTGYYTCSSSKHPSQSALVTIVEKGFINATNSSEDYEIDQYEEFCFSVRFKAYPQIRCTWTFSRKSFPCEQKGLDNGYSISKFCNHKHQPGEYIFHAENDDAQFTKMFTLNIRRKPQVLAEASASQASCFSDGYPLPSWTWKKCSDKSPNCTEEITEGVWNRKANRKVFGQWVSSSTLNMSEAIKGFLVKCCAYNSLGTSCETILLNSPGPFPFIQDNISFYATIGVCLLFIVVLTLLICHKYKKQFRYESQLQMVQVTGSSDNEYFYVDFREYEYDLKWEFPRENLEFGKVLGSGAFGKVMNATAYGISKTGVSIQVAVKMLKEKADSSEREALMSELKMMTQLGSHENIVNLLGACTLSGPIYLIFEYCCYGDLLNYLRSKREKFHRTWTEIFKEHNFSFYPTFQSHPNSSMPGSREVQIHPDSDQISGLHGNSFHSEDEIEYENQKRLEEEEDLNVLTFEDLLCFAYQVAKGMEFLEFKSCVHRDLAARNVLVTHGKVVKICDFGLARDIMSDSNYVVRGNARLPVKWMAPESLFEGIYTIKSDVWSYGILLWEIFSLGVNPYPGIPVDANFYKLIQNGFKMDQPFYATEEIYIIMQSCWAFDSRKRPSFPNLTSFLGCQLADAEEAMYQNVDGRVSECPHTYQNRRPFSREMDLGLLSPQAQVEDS
SMILES,IC50 [1],IC50 [2],IC50 [3],IC50 [4],IC50 [5],IC50 [6],IC50 [7],IC50 [8],IC50 [9],ΔTm at 4 µM [10],IC50 [10],IC50 [11]
Cc1cnc(Nc2ccc(N3CCN(C)CC3)c(F)c2)nc1Nc1cccc(NS(=O)(=O)C(C)(C)C)c1,22 nM,200 nM,1.14 nM,1400 nM,133 nM,26.8 nM,24.3 nM,41.3 nM,160 nM,9.5 ± 0.14 °C,14 nM and 3.9 nM,1.1 nM
Cc1cnc(Nc2ccc(N3CCN(C)CC3)c(F)c2)nc1Nc1ccc(Cl)c(NS(=O)(=O)C(C)(C)C)c1,17.5 nM,294 nM,,2500 nM,320 nM,53.2 nM,11.2 nM,19 nM,59 nM,11 ± 0.04 °C,4.8 nM and 1.3 nM,10.7 nM
